Assays:
Format in all cases: in vivo
Zea mays (ZEAMX) [1] = assay: Pre-emergence herbicidal activity, glasshouse pot test; conditions: Rate 1000 g/Ha; sprayed one day after sowing; evaluated after 13 days; scale 0-5
Experimental: (§1) Seeds of a variety of test species were sown in standard soil in pots. After cultivation for one day (pre-emergence) under controlled conditions in a glasshouse (at 24/16° C., day/night; 14 hours light; 65% humidity), the plants were sprayed with an aqueous spray solution derived from the formulation of the technical active ingredient in acetone/water (50:50) solution containing 0.5% Tween 20 (polyoxyethelyene sorbitan monolaurate, CAS RN 9005-64-5). The test plants were then grown in a glasshouse under controlled conditions (at 24/16° C., day/night; 14 hours light; 65% humidity) and watered twice daily. After 13 days, the test was evaluated (5=total damage to plant; 0=no damage to plant).

Setaria faberi (SETFA) [2] = assay: as above; set-up: key: 5=total damage to plant; 0=no damage to plant; conditions: Rate 1000 g/Ha; sprayed one day after sowing; evaluated after 13 days; scale 0-5
Experimental: as §1

[3] = test system: Echinochloa crus-galli (ECHCG); assay: as above; set-up: key: 5=total damage to plant; 0=no damage to plant; conditions: Rate 1000 g/Ha; sprayed one day after sowing; evaluated after 13 days; scale 0-5
Experimental: as §1

[4] = test system: Abutilon theophrasti (ABUTH); assay: as above; set-up: key: 5=total damage to plant; 0=no damage to plant; conditions: Rate 1000 g/Ha; sprayed one day after sowing; evaluated after 13 days; scale 0-5
Experimental: as §1

[5] = test system: Amaranthus retroflexus (AMARE); assay: as above; set-up: key: 5=total damage to plant; 0=no damage to plant; conditions: Rate 1000 g/Ha; sprayed one day after sowing; evaluated after 13 days; scale 0-5
Experimental: as §1

Zea mays (ZEAMX) [6] = assay: Post-emergence herbicidal activity, glasshouse pot test; set-up: key: 5=total damage to plant; 0=no damage to plant; conditions: Rate 1000 g/Ha; sprayed after 8 days cultivation; evaluated after 13 days; scale 0-5
Experimental: (§2) Seeds of a variety of test species were sown in standard soil in pots. After 8 days cultivation (post-emergence) under controlled conditions in a glasshouse (at 24/16° C., day/night; 14 hours light; 65% humidity), the plants were sprayed with an aqueous spray solution derived from the formulation of the technical active ingredient in acetone/water (50:50) solution containing 0.5% Tween 20 (polyoxyethelyene sorbitan monolaurate, CAS RN 9005-64-5). The test plants were then grown in a glasshouse under controlled conditions (at 24/16° C., day/night; 14 hours light; 65% humidity) and watered twice daily. After 13 days, the test was evaluated (5=total damage to plant; 0=no damage to plant).

Setaria faberi (SETFA) [7] = assay: as above; set-up: key: 5=total damage to plant; 0=no damage to plant; conditions: Rate 1000 g/Ha; sprayed after 8 days cultivation; evaluated after 13 days; scale 0-5
Experimental: as §2

[8] = test system: Echinochloa crus-galli (ECHCG); assay: as above; set-up: key: 5=total damage to plant; 0=no damage to plant; conditions: Rate 1000 g/Ha; sprayed after 8 days cultivation; evaluated after 13 days; scale 0-5
Experimental: as §2

[9] = test system: Abutilon theophrasti (ABUTH); assay: as above; set-up: key: 5=total damage to plant; 0=no damage to plant; conditions: Rate 1000 g/Ha; sprayed after 8 days cultivation; evaluated after 13 days; scale 0-5
Experimental: as §2

[10] = test system: Amaranthus retroflexus (AMARE); assay: as above; set-up: key: 5=total damage to plant; 0=no damage to plant; conditions: Rate 1000 g/Ha; sprayed after 8 days cultivation; evaluated after 13 days; scale 0-5
Experimental: as §2

SMILES	ZEAMX damage score, application pre-emergence (Zea mays (ZEAMX) [1])	SETFA damage score, application pre-emergence (Setaria faberi (SETFA) [2])	ECHCG damage score, application pre-emergence [3]	ABUTH damage score, application pre-emergence [4]	AMARE damage score, application pre-emergence [5]	ZEAMX damage score, application post-emergence (Zea mays (ZEAMX) [6])	SETFA damage score, application post-emergence (Setaria faberi (SETFA) [7])	ECHCG damage score, application post-emergence [8]	ABUTH damage score, application post-emergence [9]	AMARE damage score, application post-emergence [10]
CC(C)(C)c1cc(N2C(=O)N3COCC3C2O)no1 (stereo not drawn) [Compound A21]	3	5	5	5	5	4	5	5	5	5
CC(C)(C)c1cc(N2C(=O)N3CCCC3C2O)no1 (stereo not drawn) [Compound A25]	4	4	5	5	5	5	5	5	5	5
C#CCN1CC(O)N(c2cc(C(C)(C)C)on2)C1=O (stereo not drawn) [Compound A24]	3	5	5	5	5			5		
CON1C(=O)N(c2cc(C(C)(C)OC)on2)C(O)C1C (stereo not drawn) [Compound A13]	2	5	5	5	5	4	5	5	5	5
CCOC1C(O)N(c2cc(C(C)(C)F)no2)C(=O)N1C (stereo not drawn) [Compound A19]	2	4	5	4	5	4	5	5	5	5
C[C@@H]1C(O)N(c2cc(C(C)(C)F)no2)C(=O)N1C (stereo partly drawn) [Compound A20]	3	4	5	5	5	4	5	5	5	5
CN1CC(O)N(c2cc(C(C)(C)F)no2)C1=O (stereo not drawn) [Compound A16]	2	5	5	5	5	5	5	5	5	5
COCC1C(O)N(c2cc(C(C)(C)OC)on2)C(=O)N1C (stereo not drawn) [Compound A15]	2	5	5	5	5	3	5	5	5	5
CN1CC(O)N(c2cc(C(C)(C)O)on2)C1=O (stereo not drawn) [Compound A11]	2	4	5	5	5	3	4	5	5	5
COC(C)(C)c1cc(N2C(=O)N(C)C(C)C2O)no1 (stereo not drawn) [Compound A10]	3	5	5	5	5	5	5	5	5	5
COC(C)(C)c1cc(N2C(=O)N(C)CC2O)no1 (stereo not drawn) [Compound A9]	3	5	5	5	5	5	5	5	5	5
C#CCC1C(O)N(c2cc(C(C)(C)C)on2)C(=O)N1CC#C (stereo not drawn) [Compound A23]	2	5	4	5	5			5		
C#CCN1C(=O)N(c2cc(C(C)(C)C)on2)C(O)C1C (single isomer, unassigned) [Compound A22]	3	5	5	5	5	5	5	5	5	5
CC1C(O)N(c2cc(C(C)(C)F)no2)C(=O)N1C (stereo not drawn) [Compound A17]	2	5	5	5	5	4	5	5	5	5
CCOC1C(O)N(c2cc(C(C)(C)OC)on2)C(=O)N1C (stereo not drawn) [Compound A14]	2	5	5	5	5	4	5	5	5	5
CON1C(=O)N(c2cc(C(C)(C)F)no2)C(O)C1C (stereo not drawn) [Compound A18]	2	5	5	5	5	4	5	5	5	5
COC(C)(C)c1cc(N2C(=O)N(C)[C@H](C)C2O)no1 (stereo partly drawn) [Compound A12]	3	5	5	5	5	4	5	5	5	5
